Results taken from ChEMBL document CHEMBL1833796, “Locating the binding sites of anticancer tamoxifen and its metabolites 4-hydroxytamoxifen and endoxifen on bovine serum albumin” (Eur J Med Chem, 2011).

Columns and labels:
Type in all cases: ADME
Albumin [1] = molecular target: T1, Albumin (Bos taurus, UniProt P02769); test: Effect on secondary structure of bovine serum albumin assessed as alpha-helix content at 0.5 uM at pH 7.4 by circular dichroism method (reference value: 63 %); details: cattle, pH 7.4, 0.5 µM
T1 sequence (P02769 whole entry): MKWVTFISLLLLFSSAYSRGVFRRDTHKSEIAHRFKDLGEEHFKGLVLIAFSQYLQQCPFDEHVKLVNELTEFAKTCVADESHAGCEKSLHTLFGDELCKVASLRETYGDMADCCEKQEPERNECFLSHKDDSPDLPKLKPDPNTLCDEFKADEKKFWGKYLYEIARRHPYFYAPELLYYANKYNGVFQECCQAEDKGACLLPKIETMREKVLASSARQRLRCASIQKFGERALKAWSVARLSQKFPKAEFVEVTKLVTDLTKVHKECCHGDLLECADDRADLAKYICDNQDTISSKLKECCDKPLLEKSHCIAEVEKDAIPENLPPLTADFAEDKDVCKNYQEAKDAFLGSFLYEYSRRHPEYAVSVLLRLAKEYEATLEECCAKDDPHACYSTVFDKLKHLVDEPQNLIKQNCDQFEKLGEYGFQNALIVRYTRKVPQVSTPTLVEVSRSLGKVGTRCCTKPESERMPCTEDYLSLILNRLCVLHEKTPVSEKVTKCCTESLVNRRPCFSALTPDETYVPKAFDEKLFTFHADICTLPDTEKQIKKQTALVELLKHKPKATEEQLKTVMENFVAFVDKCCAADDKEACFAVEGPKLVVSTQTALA

Albumin [2] = molecular target: T1, Albumin; test: Binding affinity to bovine serum albumin at pH 7.4 by fluorescence spectroscopy; details: cattle, isolated protein
Albumin [3] = molecular target: T1, Albumin; test: Effect on secondary structure of bovine serum albumin assessed as beta antiparallel content at 0.5 uM at pH 7.4 by circular dichroism method (reference value: 3 %); details: cattle, pH 7.4, 0.5 µM
Albumin [4] = molecular target: T1, Albumin; test: Effect on secondary structure of bovine serum albumin assessed as beta-sheet content at 0.5 uM at pH 7.4 by circular dichroism method (reference value: 16 %); details: cattle, pH 7.4, 0.5 µM
Albumin [5] = molecular target: T1, Albumin; test: Effect on secondary structure of bovine serum albumin assessed as turn structure content at 0.5 uM at pH 7.4 by circular dichroism method (reference value: 12 %); details: cattle, pH 7.4, 0.5 µM
Albumin [6] = molecular target: T1, Albumin; test: Effect on secondary structure of bovine serum albumin assessed as random coil content at 0.5 uM at pH 7.4 by circular dichroism method (reference value: 6 %); details: cattle, pH 7.4, 0.5 µM
Albumin [7] = molecular target: T1, Albumin; test: Binding affinity to bovine serum albumin at pH 7.4 by Stern-Volmer plot; details: cattle, isolated protein
Albumin [8] = molecular target: T1, Albumin; test: Binding affinity to bovine serum albumin at pH 7.4 by McGhee and von Hippel method; details: cattle, isolated protein
Albumin [9] = molecular target: T1, Albumin; test: Binding affinity to bovine serum albumin at 1 to 100 uM at pH 7.4 by fluorescence spectroscopy; details: cattle, isolated protein, pH 7.4, 100 µM

Activity (Albumin [1]) [%] | K (Albumin [2]) | Activity (Albumin [3]) [%] | Activity (Albumin [4]) [%] | Activity (Albumin [5]) [%] | Activity (Albumin [6]) [%] | K (Albumin [7]) [×10⁴ /M] | K (Albumin [8]) [×10⁴ /M] | Activity (Albumin [9]) [%] | SMILES
47 | 8.01 ×10³ /M | 3 | 14 | 21 | 15 | 0.8 | 1.1 | – | CC/C(=C(\c1ccc(O)cc1)c1ccc(OCCNC)cc1)c1ccccc1 [ENDOXIFEN]
41 | 1.96 ×10⁴ /M | 3 | 26 | 20 | 10 | 1.96 | 1.65 | 98 | CC/C(=C(\c1ccccc1)c1ccc(OCCN(C)C)cc1)c1ccccc1 [TAMOXIFEN]

SMILES | Activity (Albumin [1]) [%] | K (Albumin [2]) | Activity (Albumin [3]) [%] | Activity (Albumin [4]) [%] | Activity (Albumin [5]) [%] | Activity (Albumin [6]) [%] | K (Albumin [7]) [×10⁴ /M] | K (Albumin [8]) [×10⁴ /M] | Activity (Albumin [9]) [%]
CCC(=C(c1ccc(O)cc1)c1ccc(OCCN(C)C)cc1)c1ccccc1 | 39 | 1.8 ×10⁴ /M | 3 | 17 | 21 | 20 | 1.8 | 1.5 | –
